# Reference: patent publication EP4703354A1, “COMPOUND AS CCR6 ANTAGONIST, AND PHARMACEUTICAL COMPOSITION AND USE THEREOF” (Wuhan Createrna Science and Technology Co.,Ltd., priority 2023, dated 2024)
# Experiments:
# [1] = molecular target: T1, human CCR6 (Homo sapiens, UniProt P51684); test: human CCR6 calcium flux activity (FLIPR, HEK293 cells stably expressing human CCR6, CCL20 stimulation); type: cell-based; details: for IC50: HEK293 cells stably expressing human CCR6, EC80 human MIP-3 alpha/CCL20, read-out: CCR6 inhibitory activity, IC50; for CCR6 selectivity: ratio of CXCR2 IC50 to CCR6 IC50
# T1 construct: expressed in transfected cells; host or cells: HEK293
# T1 sequence (P51684 1-374): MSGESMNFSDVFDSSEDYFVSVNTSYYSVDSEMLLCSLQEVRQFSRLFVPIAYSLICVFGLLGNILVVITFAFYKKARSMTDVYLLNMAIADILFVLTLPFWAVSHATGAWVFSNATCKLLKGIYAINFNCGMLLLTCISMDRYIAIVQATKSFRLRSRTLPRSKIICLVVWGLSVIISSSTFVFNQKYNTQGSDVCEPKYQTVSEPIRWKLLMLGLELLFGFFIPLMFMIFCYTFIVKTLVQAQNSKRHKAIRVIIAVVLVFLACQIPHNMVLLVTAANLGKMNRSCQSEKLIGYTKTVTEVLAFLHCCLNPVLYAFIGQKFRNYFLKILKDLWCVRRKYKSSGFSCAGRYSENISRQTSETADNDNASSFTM
# Procedure, shortened: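 Read-out is the RFUMax−RFUMin calcium signal (494/516 nm, 90 s) after EC80 CCL20 addition, fitted four-parameter for IC50. Before agonist, Fluo-4 Direct-loaded cells sat with compound 50 min at 37 °C plus 10 min at room temperature.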
# [2] = molecular target: T2, human CXCR2 (Homo sapiens, UniProt P25025); test: human CXCR2 calcium flux activity (FLIPR, HEK293 cells stably expressing human CXCR2, IL-8 stimulation); type: cell-based; details: HEK293 cells stably expressing human CXCR2, EC80 human IL-8; read-out: CXCR2 inhibitory activity, IC50
# T2 construct: expressed in transfected cells; host or cells: HEK293
# T2 sequence (P25025 1-360): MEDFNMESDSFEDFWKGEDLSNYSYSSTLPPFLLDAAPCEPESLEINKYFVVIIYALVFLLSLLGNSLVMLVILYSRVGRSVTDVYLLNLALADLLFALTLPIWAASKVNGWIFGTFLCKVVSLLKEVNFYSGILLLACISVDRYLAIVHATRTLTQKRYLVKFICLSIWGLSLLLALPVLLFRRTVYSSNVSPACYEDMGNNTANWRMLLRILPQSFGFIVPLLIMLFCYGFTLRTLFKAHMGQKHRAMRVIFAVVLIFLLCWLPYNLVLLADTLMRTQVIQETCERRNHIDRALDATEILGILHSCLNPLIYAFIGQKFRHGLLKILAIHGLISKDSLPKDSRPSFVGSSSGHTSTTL
# Description: The activity of the compounds was evaluated using HEK293 cells stably expressing human CXCR2 via the FLIPR platform. A 384-well black cell culture plate (Greiner, 781946) was used, with a seeding density of 20,000 cells/well, and incubated overnight at 37°C in a 5% CO2 incubator. The culture medium in the cell plate wells was removed, and 20 µL of Fluo-4 Direct™ Calcium Assay Buffer (Invitrogen, F10471, Component C), 20 µL of 2× Fluo-4 Direct™ Calcium Assay Reagent (Invitrogen, F10471, Component A) working solution, and 10 µL of 6× test compound working solution were sequentially added to each well. The cell plate was incubated in a 37 °C, 5% CO2 incubator for 50 min, followed by a 10 min incubation at room temperature. Additionally, a 6×EC80 human IL-8 (Sigma, SRP3311) working solution was prepared. After the incubation was completed, 10 µL/well of the 6×EC80 human IL-8 working solution was transferred to the corresponding cell wells using a FLIPR instrument, and the fluorescence signal changes at an excitation wavelength of 494 nm and an emission wavelength of 516 nm were recorded over 130 s. The difference between the maximum fluorescence signal (RFUMax) and the minimum fluorescence signal (RFUMin) was used as the output signal. The compound inhibition rate and the log value of the compound concentration were calculated, and a four-parameter fitting analysis was performed using GraphPad Prism 8 software to obtain the IC50 value of the test compound. Table 1. Inhibitory activity data of compounds against CCR6 and CXCR2
# [3] = in vitro liver microsome metabolic stability, human; type: in vitro ADME; details: Human liver microsomes, 37°C
# Description: (§1) Preparation of working solutions for test compounds and standards: An appropriate amount of the compound was accurately weighed and dissolved in a corresponding volume of suitable solvent to prepare 1 mM stock solutions of the test compounds and standards. The stock solutions were then diluted with appropriate solvent to obtain 100 µM working solutions of the test compounds, ensuring that the DMSO content in the working solutions remained below 10%.
# (§2) The internal standard compound testosterone (or tolbutamide) and its corresponding solvent, internal standard concentration (200 ng/mL), were selected based on the properties of the test compound.
# (§3) • Solution A: 0.1 mol/L K2HPO4 (2.28 g K2HPO4·3H2O was dissolved in 100 mL of double-distilled water); • Solution B: 0.1 mol/L KH2PO4 (1.36 g KH2PO4 was dissolved in 100 mL of double-distilled water); • 80.2 mL of Solution A and 19.8 mL of Solution B were mixed thoroughly, and the pH was adjusted to 7.4.
# (§4) 37.5 mg of glycine was weighed, dissolved in 100 mL of ultrapure water, and adjusted to pH 8.0 with NaOH.
# (§5) 1.25 mg of glucose-6-phosphate dehydrogenase (400 U/mg) was weighed (the specific amount weighed was calculated based on the activity of the purchased glucose-6-phosphate dehydrogenase), dissolved in 1 mL of glycine buffer to a concentration of 500 U/mL, aliquoted into 20 µL per tube, and stored at -20°C for future use.
# (§6) 7.83 mg of NADP, 0.06 mL of D-glucose-6-phosphate (260 mg/mL), and 10.17 mg of MgCl2·6H2O were precisely weighed.
# (§7) The mixture was dissolved in 1 mL of pure water. The cofactor ratio composition: NADP 10 mM, D-glucose-6-phosphate 60 mM, MgCl2·6H2O 50 mM.
# (§8) The reaction system (taking a 500 µL system as an example) was composed of the following solution ratios: 416.5 µL phosphate buffer, 5 µL compound working solution, 25 µL liver microsomes, 3.5 µL glucose-6-phosphate dehydrogenase, and 50 µL cofactor solution. The total incubation volume could be adjusted according to experimental requirements.
# (§9) 416.5 µL of phosphate buffer was taken, 25 µL of liver microsomes, 3.5 µL of glucose-6-phosphate dehydrogenase, and 50 µL of cofactor solution were added, vortexed twice to mix, and preincubated in a 37°C water bath for 5 minutes. Then, 5 µL of the test compound working solution was added, vortexed twice to mix, each time for 2-3 seconds, and placed in a 37°C water bath to initiate the reaction, with two parallel samples set. At 0.5 min, 1 min, 2 min, 5 min, 15 min, and 30 min after the reaction, 50 µL of the mixture was taken and added to centrifuge tubes containing 200 µL of 0°C pre-cooled internal standard working solution to terminate the reaction, vortexed for 1 minute to mix, and centrifuged at 13,000 rpm for 10 minutes in a 4°C pre-cooled high-speed centrifuge. The supernatant was collected for analysis. After the compound was added and vortex-mixed, 50 µL of the mixture was rapidly transferred to a centrifuge tube containing 200 µL of a pre-cooled (0°C) internal standard working solution to terminate the reaction, vortex-mixed for 1 minute, and used as the relative zero-point sample (relative to the standard group). The sample was then placed into a 37°C water bath to initiate the reaction, and timing was started.
# (§10) The sample analysis of the test compound was performed using the liquid chromatography-tandem mass spectrometry (LCMS/MS) method. The semi-quantitative determination was performed using the ratio of the analyte peak area to the internal standard peak area. The retention times of the analyte and internal standard, chromatogram acquisition, and chromatogram integration were processed using Analyst software.
# (§11) The in vitro elimination rate constant k of the test compound and the control compound was determined by converting the ratio of the peak area of the test compound to the internal standard into the remaining rate, and T1/2 was then calculated according to the following formula. T1/2 = (Ln2)/(k) = (0.693)/(k) [formula] Table 3. […]
# [4] = in vitro liver microsome metabolic stability, rat; type: in vitro ADME; details: Rat liver microsomes, 37°C
# Description: as §1, §2, §3, §4, §5, §6, §7, §8, §9, §10, §11
# [5] = in vitro liver microsome metabolic stability, beagle dog; type: in vitro ADME; details: Beagle dog liver microsomes, 37°C
# Description: as §1, §2, §3, §4, §5, §6, §7, §8, §9, §10, §11
SMILES,IC50 [1],CCR6 selectivity [1],IC50 [2],Liver microsome T1-2 (min) Human [3],Liver microsome T1-2 (min) Rat [4],Liver microsome T1-2 (min) Beagle dog [5]
"CC1([C@@H](Nc2c(Nc3ccnc(C(=O)N4CCOCC4)c3O)c(=O)c2=O)c2nc(F)ccc2F)CCCC1 [compound 060, (R)-3-(((3,6-difluoropyridin-2-yl)(1-methylcyclopentyl)methyl)amino)-4-((3-hydroxy-2-(morpholine-4-carbonyl)pyridin-4-yl)amino)cyclobut-3-ene-1,2-dione]",0.0019 µM,207.0,0.393 µM,,,
"CN(C)C(=O)c1nccc(Nc2c(N[C@@H](c3cccc(C(F)F)n3)C3(C)CCCC3)c(=O)c2=O)c1O [compound 107, (R)-4-((2-(((6-(difluoromethyl)pyridin-2-yl)(1-methylcyclopentyl)methyl)amino)-3,4-dioxocyclobut-1-en-1-yl)amino)-3-hydroxy-N,N-dimethylpicolinamide]",0.0038 µM,196.0,0.745 µM,,,
"CN(C)C(=O)c1nccc(Nc2c(N[C@@H](c3ncccc3Cl)C3(C)CCCC3)c(=O)c2=O)c1O [compound 019, (R)-4-((2-(((3-chloropyridin-2-yl)(1-methylcyclopentyl)methyl)amino)-3,4-dioxocyclobut-1-en-1-yl)amino)-3-hydroxy-N,N-dimethylpicolinamide]",0.005 µM,364.2,1.82 µM,,,
"CN(C)C(=O)c1nccc(Nc2c(N[C@@H](C#CC3CCC3)C3(C)CCCC3)c(=O)c2=O)c1O [compound 116, (R)-4-((2-((3-cyclobutyl-1-(1-methylcyclopentyl)prop-2-yn-1-yl)amino)-3,4-dioxocyclobut-1-en-1-yl)amino)-3-hydroxy-N,N-dimethylpicolinamide]",0.0289 µM,13.1,0.379 µM,,,
"Cc1cc(F)cnc1[C@H](Nc1c(Nc2ccnc(C(=O)N(C)C(C)C)c2O)c(=O)c1=O)C1(C)CCCC1 [compound 066, (R)-4-((2-(((5-fluoro-3-methylpyridin-2-yl)(1-methylcyclopentyl)methyl)amino)-3,4-dioxocyclobut-1-en-1-yl)amino)-3-hydroxy-N-isopropyl-N-methylpicolinamide]",0.019 µM,2522.7,47.9 µM,,,
"Cc1ccc(C)c([C@H](Nc2c(Nc3ccnc(C(=O)N(C)C)c3O)c(=O)c2=O)C2(C)CCCC2)n1 [compound 051, (R)-4-((2-(((3,6-dimethylpyridin-2-yl)(1-methylcyclopentyl)methyl)amino)-3,4-dioxocyclobut-1-en-1-yl)amino)-3-hydroxy-N,N-dimethylpicolinamide]",0.0127 µM,2469.1,31.4 µM,,,
"Cc1ccc(F)nc1[C@H](Nc1c(Nc2ccnc(C(=O)N(C)C)c2O)c(=O)c1=O)C1(C)CCCC1 [compound 014, (R)-4-((2-(((6-fluoro-3-methylpyridin-2-yl)(1-methylcyclopentyl)methyl)amino)-3,4-dioxocyclobut-1-en-1-yl)amino)-3-hydroxy-N,N-dimethylpicolinamide]",0.0143 µM,471.4,6.74 µM,,,
"CN(C)C(=O)c1nccc(Nc2c(N[C@@H](c3ncccc3CF)C3(C)CCCC3)c(=O)c2=O)c1O [compound 016, (R)-4-((2-(((3-(fluoromethyl)pyridin-2-yl)(1-methylcyclopentyl)methyl)amino)-3,4-dioxocyclobut-1-en-1-yl)amino)-3-hydroxy-N,N-dimethylpicolinamide]",0.0558 µM,494.9,27.6 µM,,,
"Cc1nccnc1[C@H](Nc1c(Nc2ccc(Cl)c(C(=O)N(C)C)c2O)c(=O)c1=O)C1(C)CCCC1 [compound 078, (R)-6-chloro-2-hydroxy-N,N-dimethyl-3-((2-(((1-methylcyclopentyl)(3-methylpyrazin-2-yl)methyl)amino)-3,4-dioxocyclobut-1-en-1-yl)amino)benzamide]",0.0562 µM,,,1014.44 min,53.62 min,1869.75 min
